The record followed here is ChEMBL document CHEMBL4402592, “Targeting Endoplasmic Reticulum α-Glucosidase I with a Single-Dose Iminosugar Treatment Protects against Lethal Influenza and Dengue Virus Infections” (J Med Chem, 2020).

The source made the active and inactive calls. No cut-off for these calls is given here. A value given as a limit tells only on which side of the number the result lay.

Series [1] deals with Influenza A virus. As to the kind of experiment: Antiviral activity against Influenza A virus (A/Texas/36/1991(H1N1)) infected in BALB/c mouse assessed as animal survival at 250 mg/kg, po administered via gavage as single dose at 8 hrs post infection (reference value: 0%). The series is classed as functional.
Series [2] concerns Influenza A virus. In words: Antiviral activity against Influenza A virus (A/Texas/36/1991(H1N1)) infected in BALB/c mouse assessed as animal survival at 500 mg/kg, po administered via gavage as two doses at 8 and 32 hrs post infection (reference value: 0%). The series is classed as functional.
Series [3] deals with Influenza A virus. As to the kind of experiment: Antiviral activity against Influenza A virus (A/Texas/36/1991(H1N1)) infected in BALB/c mouse assessed as median death time at 100 mg/kg, po administered via gavage starting at 8 hrs post-infection and continuing TID for 5 days. The series is classed as functional.
In series [4] the test system is Influenza A virus. In words: Antiviral activity against Influenza A virus (A/Texas/36/1991(H1N1)) infected in BALB/c mouse assessed as median death time at 750 mg/kg, po administered via gavage as two doses at 8 hrs and 32 hrs post infection (reference value: 9 days). It counts as functional.
For series [5], the system named is dengue virus type 2. In words: Antiviral activity against Dengue virus 2 S221 infected in DENV antibody dependent enhancement AG129 mouse model assessed as animal survival at 500 mg/kg, po administered via gavage as two doses at 36 and 52 hrs post infection (reference value: 4%). It counts as functional.
Series [6] relates to dengue virus type 2. As to the kind of experiment: Antiviral activity against Dengue virus 2 S221 infected in DENV antibody dependent enhancement AG129 mouse model assessed as reduction in IL-12/IL-23p40 level at 750 mg/kg, po administered via gavage as two doses at 36 hrs and 52 hrs post infection measured at 60 hrs post-infection by electrochemiluminescence based method. It counts as functional, organism-based.

The subject of series [7] is dengue virus type 2. As to the kind of experiment: Antiviral activity against Dengue virus 2 S221 infected in DENV antibody dependent enhancement AG129 mouse model assessed as reduction in IFN-gamma level at 750 mg/kg, po administered via gavage as single dose at 36 hrs post infection measured at 72 hrs post-infection by electrochemiluminescence based method. The series is classed as functional, organism-based.

Series [8] concerns dengue virus type 2. In words: Antiviral activity against Dengue virus 2 S221 infected in DENV antibody dependent enhancement AG129 mouse model assessed as reduction in IL-12/IL-23p40 level at 750 mg/kg, po administered via gavage as single dose at 36 hrs post infection measured at 72 hrs post-infection by electrochemiluminescence based method. The series is classed as functional, organism-based.

Series [9] relates to Mus musculus. In words: In vivo inhibition of ERGlu2 in BALB/c mouse assessed as increase in mono-glucosylated FOS level in serum at 20 mg/kg, po administered via gavage starting at 8 hrs post-infection and continuing tid for 5 days and measured at 8 hrs post-final dose by NP-HPLC analysis. The series is classed as functional, organism-based.
The test system of the next series is Cynomolgus monkey. In words: In vivo inhibition of ERGlu1 in cynomolgus monkey assessed as increase in tri-glucosylated FOS at level in serum 128 to 258 mg/kg, po administered via gavage as single dose measured after 8 to 72 hrs by NP-HPLC analysis. It counts as functional, organism-based. The following applies: Macaca fascicularis.
Series [10] can be described thus: Toxicity in po dosed cynomolgus monkey assessed as maximum tolerated dose administered via gavage as single dose. The series is classed as organism-based, Macaca fascicularis. The note with it: in vivo.
Series [11] relates to Influenza A virus. In words: Antiviral activity against Influenza A virus (A/Texas/36/1991(H1N1)) infected in BALB/c mouse assessed as increase in animal survival rate at >250 mg/kg, po administered via gavage as single dose at 8 hrs post-infection. The series is classed as functional, organism-based.
For series [12], the system named is dengue virus type 2. As to the kind of experiment: Antiviral activity against Dengue virus 2 S221 infected in DENV antibody dependent enhancement AG129 mouse model assessed as reduction in TNF-alpha level at 750 mg/kg, po administered via gavage as single dose at 36 hrs post infection measured at 60 hrs post-infection by electrochemiluminescence based method. It counts as functional, organism-based.

In series [13] the test system is Mus musculus. As to the kind of experiment: In vivo inhibition of ERGlu1 in BALB/c mouse assessed as increase in mono-glucosylated FOS level in serum at 100 to 1000 mg/kg, po administered via gavage at 8 hrs post-infection and measured at 8 hrs post-dose by NP-HPLC analysis. The series is classed as functional, organism-based.

As for `COCCCCCCCCCN1C[C@H](O)[C@@H](O)[C@H](O)[C@H]1CO.Cl`, in the series with Influenza A virus [1], the survival at 250 mg/kg turned out to be 30%. Also, the survival at 500 mg/kg came to 100% with Influenza A virus [2] and 86% in the series on dengue virus type 2 [5]. For the same compound, the Time in the series with Influenza A virus [3] and with Influenza A virus [4] was greater than 14 days throughout. Further, the outcome in the series with dengue virus type 2 [6], in the series on dengue virus type 2 [7], in the series with dengue virus type 2 [8], with Influenza A virus [11] and with dengue virus type 2 [12] was Active. For the same compound, the inhibition entry in the series on Mus musculus [9], in the series with Cynomolgus monkey and in the series with Mus musculus [13] was “Active” each time. Further, the MTD in [10] came to 258 mg/kg.

In general, MTD refers to the largest dose that counted as tolerated.
